Reference: US20250042929A1, “NEW CRYSTAL FORM OF TRISACCHARIDE” (SHANDONG HENGLU BIOTECH. CO., LTD., priority 2022, published 2025)

Assays:
Type in all cases: physicochemical
[1] = Hygroscopicity study in constant temperature and humidity chamber; settings: for Moisture rate: Example 9, after 5 days; for Added weight: about 1 g sample; for Before the experiment, appearance: before placing in chamber
Procedure: • Step 1: Preparation of glass petri dishes
One day before the experiment, place glass petri dishes (without lids) in a constant temperature and humidity chamber set at 25±1° C. and 75±2% relative humidity for 4 hours. Take out the dishes, accurately weigh, and repeat until consistent weight readings are obtained. Record the data in Table 3. • Step 2: Weigh the amorphous LNTII powder and LNTII crystalline form A from Example 1 separately, place them in the pre-weighed petri dishes from Step 1 in a constant temperature and humidity chamber set at 25° C. and 75% relative humidity. After 5 days, examine any physical changes, reweigh the samples, and calculate their hygroscopicity. Record the results in Tables 2 and 3. A comparison of the physical appearances before and after moisture exposure are depicted in FIG. 5 and FIG. 6.
Replicating the procedure outlined in Example 8, evaluate the LNTII crystalline form A samples obtained from Examples 1-7. Place the samples in pre-weighed petri dishes within a constant temperature and humidity chamber at 25° C. and 75% relative humidity. After 5 days, inspect for any changes in appearance, weigh the samples, and calculate their hygroscopicity. Document the findings in Table 4.

[2] = Stability study, sealed in aluminum-plastic composite film, 40° C. and 75% relative humidity
Procedure: In this invention, the quantification of LNTII is performed using high-performance liquid chromatography (HPLC) under the conditions listed below:
Chromatographic column: Asahipak NH2P-504E, 4.6 mm×250 mm, 5 μm particle size; mobile phase composition: acetonitrile to water in a ratio of 65:35; flow rate: 1 mL/min; detection method: UV-VIS detector; wavelength: 210 nm; column temperature: 30° C.; injection volume: 10 μL; total run time: 30 minutes.
Separately weigh 10 g of amorphous LNTII powder produced in Examples 1-7. Seal each sample with aluminum-plastic composite film. Store all samples in a constant temperature and humidity chamber at 40° C. and 75% relative humidity. Retrieve samples at the end of January, February, and March to assess the LNTII content and observe any changes in appearance. Record the outcomes in Table 5.

[3] = as above; settings: 3 months
[4] = End of 1 month, 40° C., 75% relative humidity, HPLC
[5] = End of 2 months, 40° C., 75% relative humidity, HPLC
[6] = End of 3 months, 40° C., 75% relative humidity, HPLC
[7] = Example 8, 25° C., 75% relative humidity, 5 days

| Structure (SMILES) | Moisture rate ([1]; 25° C., 75% relative humidity) | Content ([2]; Day 0, LNTII content by HPLC) | Content [2, 4] | Content [2, 5] | Content [2, 6] | other results |
| --- | --- | --- | --- | --- | --- | --- |
| CC(=O)NC1C(O)[C@H](O)C(CO)O[C@H]1OC1C(O)[C@H](O[C@H]2C(CO)OC(O)C(O)C2O)OC(CO)[C@@H]1O (stereo partly shown) [Example 6 Crystalline form A, Lacto-N-triose II] | 13.32% | 91.98% | 91.94% | 91.84% | 91.93% |  |
| CC(=O)NC1C(O)[C@H](O)C(CO)O[C@H]1OC1C(O)[C@H](O[C@H]2C(CO)OC(O)C(O)C2O)OC(CO)[C@@H]1O (stereo partly shown) [Example 5 Crystalline form A, Lacto-N-triose II] | 13.79% | 92.57% | 92.61% | 92.51% | 92.64% |  |
| CC(=O)NC1C(O)[C@H](O)C(CO)O[C@H]1OC1C(O)[C@H](O[C@H]2C(CO)OC(O)C(O)C2O)OC(CO)[C@@H]1O (stereo partly shown) [Example 2 Crystalline form A, Lacto-N-triose II] | 13.26% | 98.18% | 98.15% | 98.22% | 98.23% |  |
| CC(=O)NC1C(O)[C@H](O)C(CO)O[C@H]1OC1C(O)[C@H](O[C@H]2C(CO)OC(O)C(O)C2O)OC(CO)[C@@H]1O (stereo partly shown) [LNTII amorphous powder, Lacto-N-triose II, reference compound] |  |  |  |  |  | Moisture rate (moisture absorption rate = added weight/sample weight × 100%) [1, 7]: 29.47%; Day 5, appearance ([1]; Example 8, 25° C., 75% relative humidity, 5 days, open petri dish): Light yellow, paste; Added weight [1, 7]: 0.2951 g; Before the experiment, appearance ([1]; Example 8): Off-white powder; Content and appearance throughout the stability study, in words ([3]; listed as amorphous LNTII powder): decreases the content and the color gradually fades to pale yellow; Content ([2]; Day 0, LNTII content by HPLC, listed as Amorphous LNTII powder): 91.24%; Content ([2]; End of 1 month, 40° C., 75% relative humidity, HPLC, listed as Amorphous LNTII powder): 91.01%; Content ([2]; End of 2 months, 40° C., 75% relative humidity, HPLC, listed as Amorphous LNTII powder): 90.86%; Content ([2]; End of 3 months, 40° C., 75% relative humidity, HPLC, listed as Amorphous LNTII powder): 90.01% |
| CC(=O)NC1C(O)[C@H](O)C(CO)O[C@H]1OC1C(O)[C@H](O[C@H]2C(CO)OC(O)C(O)C2O)OC(CO)[C@@H]1O (stereo partly shown) [LNTII form A, Lacto-N-triose II] |  |  |  |  |  | Stability (from appearance changes and hygroscopicity results), in words ([1]; 25° C., 75% relative humidity, 5 days, crystalline form A compared with amorphous powder): superior to the amorphous powder; Moisture rate (moisture absorption rate = added weight/sample weight × 100%) [1, 7]: 14.17%; Added weight [1, 7]: 0.1418 g; Before the experiment, appearance ([1]; Example 8): Off-white; Content and appearance throughout the stability study, in words ([3]; listed as LNTII crystalline form A): maintains its content and appearance throughout the stability study |
| CC(=O)NC1C(O)[C@H](O)C(CO)O[C@H]1OC1C(O)[C@H](O[C@H]2C(CO)OC(O)C(O)C2O)OC(CO)[C@@H]1O (stereo partly shown) [Example 1 Crystalline form A, Lacto-N-triose II] | 12.87% | 97.98% | 98.02% | 97.97% | 97.96% |  |
| CC(=O)NC1C(O)[C@H](O)C(CO)O[C@H]1OC1C(O)[C@H](O[C@H]2C(CO)OC(O)C(O)C2O)OC(CO)[C@@H]1O (stereo partly shown) [Example 7 Crystalline form A, Lacto-N-triose II] | 12.74% | 98.58% | 98.56% | 98.48% | 98.56% |  |
| CC(=O)NC1C(O)[C@H](O)C(CO)O[C@H]1OC1C(O)[C@H](O[C@H]2C(CO)OC(O)C(O)C2O)OC(CO)[C@@H]1O (stereo partly shown) [Example 3 Crystalline form A, Lacto-N-triose II] | 14.09% | 97.87% | 97.90% | 97.93% | 97.88% |  |
| CC(=O)NC1C(O)[C@H](O)C(CO)O[C@H]1OC1C(O)[C@H](O[C@H]2C(CO)OC(O)C(O)C2O)OC(CO)[C@@H]1O (stereo partly shown) [Example 4 Crystalline form A, Lacto-N-triose II] | 13.61% | 92.30% | 92.32% | 92.33% | 92.27% |  |
